# Measurements: patent US9315544B2, “Method of treating eosinophilia by administering an immunomodulating peptide” (National Tsing Hua University, priority 2012, dated 2016)
# Key:
# Format in all cases: in vivo, BALB/c mouse
# goblet cell hyperplasia = assay: Lung histopathology (PAS), goblet cell hyperplasia score; details: eIN+mIT+eIN group (CMP days 1 to 22)
# Excerpt: (§1) FIG. 4 illustrates experimental design. All groups except control group were immunized with mite crude extract allergen on days 1 and 8, then mite crude extract allergen intratracheally on day 15 in all mite treated group, BALB/c mouse were divided into six groups (1) control group (PBS), (2) mites delivered intratracheally (mIT, mite on day 15) alone, (3) CMP intranasal (eIN, CMP on days 1 to 22) alone, (4) preventive-treatment group (eIN+mIT, CMP on days 1 to 14, mite on day 15) (5) therapy-treatment group (mIT+eIN, mite on day 15, CMP on days 15 to 22), and (6) preventive- and therapeutic-treatment group (eIN+mIT+eIN, CMP on days 1 to 22, mite on day 15).
# FIG. 6A-6B illustrates inhibitory effect of CMP on influx of inflammatory cells. […] (A) Scores for peri-bronchiolar, alveolar inflammation and (B) PAS were determined based on the histological sections. Each result was expressed as the mean±S.D., n=4. ***, P<0.001. […]
# The formalin-fixed lung sections stained with hematoxylin and eosin (H&E) were assigned a unit value for alveolar, peri-bronchiolar, and total inflammation by computing the means of three independent scores for three randomly selected fields. […] For evaluating the hyperplasia goblet cells, medium-sized airways were assessed in sections stained with periodic acid-Schiff (PAS) stain. Two reviewers independently and randomly scored 10 fields of each slide. […]
# CCL-11 = assay: Cytokine ELISA of lung protein extract (CCL-11); details: eIN+mIT, mIT+eIN and eIN+mIT+eIN groups
# Excerpt: as §1
# (§2) FIG. 9 illustrates inhibitory effect of CMP on lung protein extract. Lung protein extracts from different groups of mouse were assayed for the indicated cytokines. Data represent one of three independent experiments. Levels of CCL-11, IL-5, IL-13 and IL-17A/F levels in lung protein extracts from mouse from treatment groups were measured by Enzyme-linked immunosorbent assay (ELISA). Each result was expressed as the mean±S.D., n=4. **, P<0.01, ***, P<0.001. […]
# (§3) Levels of cytokines from lung protein extract were measured by ELISA. […] The microplates were read at 450 nm with an ELISA reader (Thermo Labsystems, Waltham, Mass., USA). […]
# IL-13 = assay: Cytokine ELISA of lung protein extract (IL-13); details: eIN+mIT, mIT+eIN and eIN+mIT+eIN groups
# Excerpt: as §1, §2, §3
# IL-17A/F = assay: Cytokine ELISA of lung protein extract (IL-17A/F); details: eIN+mIT, mIT+eIN and eIN+mIT+eIN groups
# Excerpt: as §1, §2, §3
sequence,measurement,setting,value
NYRWRCKNQN (CMP),score of goblet cell hyperplasia compared with mIT group,goblet cell hyperplasia,lower score
same,CCL-11 in lung protein extract compared with mIT group,CCL-11,lower concentrations
same,IL-13 in lung protein extract compared with mIT group,IL-13,lower concentrations
same,IL-17A/F levels in lung protein extract compared with mIT group,IL-17A/F,much lower
